From patent publication US20240224993A1, “ANTIMICROBIAL COMPOSITIONS” (GOJO Industries, Inc., priority 2009, published 2024)

Assays:
S. marcescens #14756 = test: ASTM E 2315 time-kill procedure, S. marcescens; format: cell-based; settings: contact time 15 seconds
Method: (§1) In vitro efficacy of these compositions was measured against E. coli, S. aureus, E. faecium, S. marcescens, S. aureus (MRSA), P. mirabilis, K. pneumoniae, and S. epidermidis. The test was conducted according to the ASTM E 2315 method, “Standard Guide for Assessment of Antimicrobial Activity Using a Time-Kill Procedure.” Contact time was 15 seconds.
(§2) In vitro efficacy of these compositions was measured against S. marcescen, and S. aureus. The test was conducted according to the ASTM E 2315 method, “Standard Guide for Assessment of Antimicrobial Activity Using a Time-Kill Procedure.” Contact time was 15 seconds.

S. aureus #6538 = test: ASTM E 2315 time-kill procedure, S. aureus; format: cell-based; settings: contact time 15 seconds
Method: as §1, §2

[1] = 0.5 wt. % diol, 0 wt. % ethanol
[2] = 0.5 wt. % diol, 15 wt. % ethanol
[3] = 0.5 wt. % diol, 30 wt. % ethanol
[4] = 1.0 wt. % diol, 0 wt. % ethanol
[5] = 1.0 wt. % diol, 15 wt. % ethanol
[6] = 1.0 wt. % diol, 30 wt. % ethanol

Structure (SMILES): CCO [ethanol]
- Log Reduction-S. marcescens #14756 (S. marcescens #14756; 0 wt. % diol, 30 wt. % ethanol): 0.45 log
- Log Reduction-S. aureus #6538 (S. aureus #6538; 0 wt. % diol, 30 wt. % ethanol): 0 log

Structure (SMILES): CCCCCCC(O)CO (centres unmarked) [1,2-octanediol]
- Log Reduction-S. marcescens #14756 (S. marcescens #14756; [1]): 0.3 log
- Log Reduction-S. marcescens #14756 (S. marcescens #14756; [2]): 0.1 log
- Log Reduction-S. marcescens #14756 (S. marcescens #14756; [3]): >5.1 log
- Log Reduction-S. marcescens #14756 (S. marcescens #14756; [4]): 3.5 log
- Log Reduction-S. marcescens #14756 (S. marcescens #14756; [5]): 2.3 log
- Log Reduction-S. marcescens #14756 (S. marcescens #14756; [6]): >5.1 log
- Log Reduction-S. aureus #6538 (S. aureus #6538; [1]): 0 log
- Log Reduction-S. aureus #6538 (S. aureus #6538; [2]): 0.2 log
- Log Reduction-S. aureus #6538 (S. aureus #6538; [3]): 0.1 log
- Log Reduction-S. aureus #6538 (S. aureus #6538; [4]): 0.2 log
- Log Reduction-S. aureus #6538 (S. aureus #6538; [5]): 2.6 log
- Log Reduction-S. aureus #6538 (S. aureus #6538; [6]): 0.9 log
